91 compounds from a melting point compilation (Tetko et al.; mined from patent text by program, amines drawn as free bases though some values may be those of a salt) can be followed below.

The compound `Cc1oc(-c2ccc(C(F)(F)F)cc2)nc1-c1ccc(-c2cc(Br)c(O)c(Br)c2)cc1` returned a melting point of 79 to 81 °C.

Consider `COc1ccc2cccc(N3C(=O)CN(CC#N)CC3=O)c2c1`, for which the melting point came to 204 °C. In turn, `COc1ncccc1C(=O)NC1CNCCn2c1nc(-c1ccncn1)cc2=O` (racemic) came in with a melting point of 236 to 238 °C. Regarding `Cc1ccc(C(=O)OCCN(C)C)cc1-n1c(C)cc(OCc2ccccc2CNC(=O)Nc2cc(C(C)(C)C)nn2-c2cccc(OCCO)c2)c(Cl)c1=O`, the melting point lay in the range of 164 to 165 °C.

In turn, `NC(=O)N(O)CC1CCC1` registered a melting point of 112 to 113 °C. The compound `CCNc1cccnc1N1CCN(C(=O)c2ccc(C(=O)OC)cc2)CC1` returned a melting point of 96 to 97 °C. Take `COC(=O)CNc1cccc(Cl)c1`: the melting point lay within 75 to 76 °C. In the case of `Cc1c(CNCC(C)(C)C)[nH]c2c(F)c(NC(=O)c3ccc(OC[C@@H]4CCCO4)cc3)ccc12`, the melting point was in the range of 159 to 160 °C. `c1cn(CCCc2ccc(OCc3coc(C4CCCCC4)n3)cc2)cn1` showed a melting point of 46 to 47 °C. `Cc1nnc2c3[nH]cnc3n(Cc3ccccc3)c(=O)n12` had a melting point of 309 to 310 °C.

As to `N=C(N)c1ccc(N2CCN(c3ccc(SCC(=O)O)cc3)C2=O)cc1`, the melting point was above 275 °C. On to `Fc1ccc(Oc2ccc(-c3ccn(-c4ncccn4)n3)cc2)cc1`, for which the melting point was 123 to 125 °C. The compound `CC(=O)SCC(Cc1ccccc1)C(=O)Nc1cc(C)cc(C(=O)O)c1C` (stereo unspecified) gave a melting point of 182 to 186 °C. Compound `COC(=O)c1c(C(N)=O)[nH]c(-c2ccccc2)c1N` came in with a melting point of 177 to 179 °C. `Cc1c(C#N)c(-c2ccc(C#N)cc2)c(C)n1Cc1ccc(Cl)c(C(O)C(F)(F)F)c1` (stereo unspecified): the melting point is 196 to 198 °C.

As to `O=C(c1cccnc1)c1ccc(Cl)c([N+](=O)[O-])c1`, the melting point was in the range of 112 to 113 °C. `CS(=O)(=O)c1ncc(-c2ccccc2)c(C(F)(F)F)n1`: the melting point was in the range of 110 to 112 °C.

Compound `Nc1cc(Cl)nc(C(=O)NOCc2ccc(F)cc2)c1Cl` gave a melting point of 209 to 211 °C. In turn, `O=C(O)CCCCCCCCCN1C(=O)c2ccccc2C1=O` came in with a melting point of 58 to 60 °C. Regarding `CC(C)=CCn1c(C)cnc1[N+](=O)[O-]`, the melting point lay in the range of 78 to 79 °C. Regarding `CCOC(=O)C(=CNc1nnc(-c2cccnc2)s1)C(=O)OCC`, the melting point lay in the range of 144 to 145 °C. The compound `CNC(=O)C1=CC(C)(C)Oc2ccc(C(F)(F)F)cc21` had a melting point of 146 to 150 °C.

`CC(=O)OCC1OC(n2c(Br)nc3cc(Cl)c(Cl)cc32)C(O)C1O` (stereo unspecified) registered a melting point of 85 to 95 °C. With `COC(=O)CNc1ccccc1C#N`, the melting point fell in the range of 70 to 78 °C.

`CC(C)c1cccc(C(C)C)c1OC(=O)c1ccccc1` returned a melting point of 80 to 81 °C. As to `CC(C)(C)c1ccc(N)nn1`, the melting point was in the range of 125 to 132 °C. Next, `c1csc(-c2ccc(-c3cn([C@H]4CN5CCC4CC5)nn3)cc2)c1`: 214 °C. `CN(C)CCCCOc1ccc2c(=O)cc(-c3ccccc3)oc2c1` registered a melting point of 95 to 96 °C. On to `CCn1ncc2c(NCC3CCC(C(=O)OCSC)CC3)c3ccccc3nc21` (stereo unspecified), for which the melting point is 135 to 136 °C. `O=C1C=C(Cc2ccccc2)CC1` displayed a melting point of 32 to 33 °C. Consider `O=C(NOC1CCCCO1)c1cnc(N2CCC(NS(=O)(=O)c3ccc4ccccc4c3)CC2)nc1` (stereo unspecified), for which the melting point worked out at 226 °C. `CCN(CC)c1ccc(C2(c3c(C)n(CC)c4ccccc34)OC(=O)c3cccnc32)c(OC2CCCC2)c1` (stereo unspecified) displayed a melting point of 120 to 125 °C. Consider `O=C(Nc1ccc2ccc(Cl)nc2n1)c1ccsc1`, for which the melting point stood at 254 °C. For `COc1cccc(N2CCC(C(N)=O)CC2)c1`, the melting point is 153 to 156 °C. With `CCn1c(=O)n(CCC(C)C(C)=O)c(=O)c2c1ncn2CCOC` (stereo unspecified), the melting point lay within 83 to 84 °C. `C#CCN(C(=O)c1ccco1)c1c(C)cccc1C` yielded a melting point of 113 °C. As to `O=C(c1ccc2nonc2c1)N1CC2CCC1CC2`, the melting point lay within 138 to 139 °C. Compound `O=C1C=CC(c2ccccc2)(c2ccccc2)[C@@H]2CN(Cc3ccccc3)C[C@H]12` (racemic) returned a melting point of 132 °C. Take `CC(=O)c1ccc2c(c1)Cc1ccc(C(C)=O)cc1-2`: the melting point is 155 °C. `CCOC(=O)C(C(=O)OCC)=C(SCc1ccc(OC)cc1)SCc1ccc(OC)cc1`: the melting point was in the range of 57 to 59 °C. For `CN1CC2C3C=CC(C3)C2(c2cccc(O)c2)C1` (stereo unspecified), the melting point lay in the range of 129 to 136 °C. With `CS(=O)c1ccc(-c2nc(=O)c3ccccc3s2)cn1` (stereo unspecified), the melting point fell in the range of 195 to 196 °C. As for `Nc1nc(CC(=O)Nc2cccc(C(F)(F)F)c2)cs1`, the melting point fell in the range of 116 to 118 °C.

`CCn1cc(O)c(=O)cc1CO`: the melting point lay in the range of 143 to 145 °C. `Cc1ccc(-c2nc(NC(=O)c3nnn[nH]3)cs2)cc1` displayed a melting point of 228 to 230 °C.

For the compound `CCOC(=O)c1csc(Nc2ccc(C)cn2)n1`, the melting point is 198 to 200 °C.

In turn, `Nc1cc(-c2ccc(Cl)cc2)on1` returned a melting point of 141 to 143 °C.

The compound `N#Cc1ccc([C@@H]2CN(S(=O)(=O)c3cccc(C(=O)O)c3)C[C@@]23NC(=O)N(c2cc(Cl)cc(Cl)c2)C3=O)cc1` (relative stereo) displayed a melting point of 150 °C. Turning to `CCOC(=O)/C=C(C)/C=C/C=C(\C)C1=Cc2cc(C(C)(C)C)cc(C(C)(C)C)c2OC1`, the melting point is 130 to 131 °C. `CCN1CCC(n2nnnc2C2(c3cc(C(C)C)ccc3OC)C=CC(O)=CC2O)CC1` (stereo unspecified): the melting point was in the range of 144 to 147 °C. Next, `COC(=O)c1cc(NC(C)=O)c([N+](=O)[O-])cc1C(=O)OC`: 119 to 120 °C; `CCC(CC)N(O)C(=O)Nc1ccc(C(=O)c2ccccc2)cc1`: 156 to 157 °C. Compound `CCCCOc1cc(C=C[N+](=O)[O-])c([N+](=O)[O-])cc1OCc1ccccc1` displayed a melting point of 152 °C. `CC(C)(C)P(=O)(O)CCCN` registered a melting point of 253 to 255 °C. Compound `O=C(NCCNCC(O)COc1ccc(OCCOCC2CCC2)cc1)N1CCOCC1` (stereo unspecified) gave a melting point of 91 to 93 °C. On to `CN1CCN(c2cc(Cl)cc3c2c(=O)n(Cc2ccc(Br)cc2)c(=O)n3Cc2ccccc2)CC1`, for which the melting point fell in the range of 93 to 98 °C.

As for `C=CCN1Cc2cnc(C)n2-c2ccc(Cl)cc2C1c1ccccc1F` (stereo unspecified), the melting point was 140 to 145 °C. In turn, `CC(=O)SCC(Cc1ccccc1)C(=O)Nc1cccc(C(=O)N[C@@H](Cc2ccccc2)C(=O)OCc2ccccc2)c1` (stereo partly specified) gave a melting point of 89 to 91 °C. Turning to `COc1cc2ccnc(C=Cc3c(Cl)cccc3Cl)c2cc1OC`, the melting point was 145 to 146 °C. Compound `COC(=O)C1=C(C)NC(C)=C(c2nc(C)no2)C1c1cccc([N+](=O)[O-])c1` (stereo unspecified) showed a melting point of 221 to 222 °C. `CC(C)Sc1nc2c(cc1C#N)C(=O)CC(C)(C)C2` displayed a melting point of 135 to 136 °C. `N#Cc1c(NC(=O)CO)cccc1N1CCCCC1` showed a melting point of 121 to 124 °C.

`CN1C(=O)SC(Cc2cn(-c3ccccc3)nc2OCc2ccccc2)C1=O` (stereo unspecified): the melting point was 115 to 116 °C.

`Cc1ccc(Cc2cnc(NCCCCNc3ncc(Cl)cc3C)[nH]c2=O)cn1` yielded a melting point of 202 to 203 °C. Take `COc1cc2ncnc(Nc3cccc(O)c3)c2cc1OC`: the melting point fell in the range of 256 to 257 °C. `O=C(O)c1ccc2oc3ncccc3c(=O)c2c1` returned a melting point of 293 to 294 °C. As to `N#Cc1cc(C#N)cc(Oc2ccnc(Oc3cc(Cl)cc(Cl)c3)n2)c1`, the melting point was found to be 196 °C.

With `COc1cc(OC)nc(NC(=O)NS(=O)(=O)c2nc(C)cc3c2C(=O)OC3)n1`, the melting point fell in the range of 149 to 153 °C. The compound `CCCN(c1ccncc1)n1cc(C(C)=O)c2ccccc21` gave a melting point of 81 to 86 °C. For `Cn1nnnc1Cc1ccc(N)cc1` the value was 104 to 105 °C; for `CCc1cccc(C(O)CCc2ccccc2)c1NC(=O)CC1c2ccccc2Oc2ccccc21` (stereo unspecified), 128 to 129 °C.

For the compound `CCC1C(C)=NN=C(c2ccc(O)c(OC)c2)c2cc(O)c(O)cc21` (stereo unspecified), the melting point lay within 252 to 253 °C. For `Cc1cc(-c2cc(O)c(SCCc3ccccc3)c(=O)o2)ccc1OCc1ccccc1` the value was 147 to 148 °C; for `COC(=O)c1ccccc1S(=O)(=O)NC(=O)n1nc(Oc2ccccc2)n(C)c1=O`, 161 °C; for `CC(C)(C)c1cccc(S(=O)(=O)n2c(CCCCC(=O)O)cc3cc(C(F)(F)F)ccc32)c1`, 135 °C. `CCCCC1SCC(C(=O)OC(C)(C)C)N1C(=O)CNC(=O)NCC(C(=O)O)c1ccccc1` (stereo unspecified) displayed a melting point of 102 °C. For `C=CCn1c(NCCCOc2ccccc2)nc(N2CCc3ccccc3CC2)c(C#N)c1=O`, the melting point lay in the range of 157 to 159 °C.

Compound `OCc1ccc(-c2ccc(OC(F)(F)F)c(F)c2)cn1` yielded a melting point of 51 to 53 °C. For `CC(C)(C)OC(=O)N1CC(c2n[nH]c(-c3ccccn3)n2)C1` the value was 220 °C; for `CC(C)(C)OC(=O)NCCSc1cc(-c2ccccc2)on1`, 87 to 88 °C.

In the case of `CCCCCn1ncc2c(N)c3c(nc21)CCNC3=O`, the melting point lay within 161 to 162 °C. Turning to `CC1(C)CC(C)(C)CC2(CCC(=O)N2)C1`, the melting point is 158 to 160 °C. `OC1(c2ccccn2)CCC2CCCC21` (stereo unspecified) came in with a melting point of 66 to 66.5 °C. Consider `CC(C)C[C@H](NC(=O)OC(C)(C)C)[C@H](O)CO`, for which the melting point lay in the range of 58 to 59 °C.

`Cc1oc(-c2ccccc2)nc1COc1ccc(OCc2ccccc2)cc1` came in with a melting point of 126 to 127 °C. In turn, `COc1cc(OCCOc2ccc(C(=O)C(=O)O)cc2)cc(OC)c1OC` came in with a melting point of 118 to 119 °C.

The compound `O=C(CSc1nc2ccccc2[nH]1)c1ccc2[nH]c3ncc(Cl)cc3c2c1` registered a melting point of 209 to 210 °C. For the compound `CN(C)S(=O)(=O)c1ccc2c(c1)S(=O)(=O)NC1CCCN21` (stereo unspecified), the melting point was 240 to 243 °C. `COc1ccc(N2CCC(c3cnc(N)nc3N)CC2)cc1`: the melting point fell in the range of 224 to 225 °C.

Turning to `FC(F)(F)c1ccc2nccc(Br)c2c1`, the melting point was found to be 56 °C.

`CN(CCCO)CC1(SSC2(CN(C)CCCO)CCCCC2)CCCCC1` had a melting point of 65 to 66 °C.

In general, melting point refers to the temperature of the solid-liquid transition.
